Reference: patent publication EP4793271A1, “NEUROPROTECTIVE AGENT” (National Center of Neurology and Psychiatry, priority 2023, dated 2025)

Columns and labels:
[1] = test system: primary cultured cells of mouse fetus-derived dorsal root ganglia (DRGs); assay: Suppression of axonal degeneration after axotomy in DRG explant culture; assay type: cell-based; conditions: minimum concentration at which axonal degeneration was suppressed (DI 0.3 or less), 24 hours after axotomy; for minimal effective concentration: Mus musculus, read-out: Evaluation on protection against degeneration
Procedure: The compound of the present invention was studied for its protective effect against axonal injury using primary cultured cells of mouse fetus-derived dorsal root ganglia (DRGs).
DRGs were collected from a fetus derived from an ICR mouse (13.5 days of pregnancy). DRGs were cultured using a plate coated by incubation with 0.1 mg/mL poly-L-lysine at 4°C for 24 hours or longer, washing with PBS, and then incubation with 2.5 µg/mL Cultrex Mouse Laminin I at 37°C for 4 to 6 hours.
One of DRGs collected was plated to each well of the coated 24-well plate. The DRG was cultured in a nicotinamide-free medium for neuron (supplemented with 10% FBS, 1 mM glutamine, 50 ng/mL NGF2.5S, and penicillin-streptomycin) for 24 hours at maximum from the start of culture and then cultured in a nicotinamide-free medium for neuron (supplemented with 2% MACS NeuroBrew-21, 50 ng/mL NGF2.5S, 1% Glutamax, 20 µM uridine, 20 µM 5-fluoro-2'-deoxyuridine, and penicillin-streptomycin) for 7 to 8 days.
The nicotinamide-free medium for neuron was prepared so as to have the same constituents as those of the composition published in a previously reported paper (Brewer et al., J. Neuroscience Research 35: 567-576) except for nicotinamide with reference to this composition.
The test compound is dissolved in DMSO and added to cells such that the final concentration of DMSO is 0.1% (1000-fold dilution). 10 mM, 1 mM, 100 µM, 10 µM, 1 µM, and 100 nM samples of the test compound are prepared and added at a 1000-fold dilution to cells.
Axotomy was carried out by scooping out a cell body portion of the cultured DRG with a chip for a micropipette. The test compound was added at the following concentrations (final concentration: 10 µM, 1 µM, 100 nM, 10 nM, 1 nM, and 100 pM) within 30 minutes after axotomy. The compound was evaluated for its protective effect against axonal degeneration by imaging (Leica DMIL microscope, 20× objective lens) the state of neurites 24 hours after axotomy and evaluating the degree of degeneration. The degree of degeneration was quantified using a program uniquely developed using the R language. A degeneration index (DI) was used as an indicator for the degree of degeneration, and the ratio of the area of a fragmented axon to the total area of axons was calculated as defined in the equation of Expression 2. Suppressed axonal degeneration was evaluated when the value of DI was 0.3 or less. The minimum concentration at which axonal degeneration was suppressed was determined for each compound. Degeneratioin index (DI) = (Degenerated axons)/(All axons) [formula]
The axonal protective activity was evaluated as A ≤ 0.01 µM, 0.01 µM < B ≤ 0.1 µM, and 0.1 µM < C ≤ 1 µM depending on the minimum concentration at which axonal degeneration was suppressed.

[2] = target: T1, nicotinamide phosphoribosyl transferase (NAMPT) (Homo sapiens, UniProt P43490); assay: NAMPT activity measurement (NMN fluorescence detection); assay type: biochemical; conditions: NAMPT recombinant protein, 10 µM Nam; for IC50: read-out: Evaluation on NAMPT inhibitory
T1 construct: purchased Medical & Biological Laboratories Co., Ltd. (MBL)
T1 sequence (P43490 whole entry, species assumed): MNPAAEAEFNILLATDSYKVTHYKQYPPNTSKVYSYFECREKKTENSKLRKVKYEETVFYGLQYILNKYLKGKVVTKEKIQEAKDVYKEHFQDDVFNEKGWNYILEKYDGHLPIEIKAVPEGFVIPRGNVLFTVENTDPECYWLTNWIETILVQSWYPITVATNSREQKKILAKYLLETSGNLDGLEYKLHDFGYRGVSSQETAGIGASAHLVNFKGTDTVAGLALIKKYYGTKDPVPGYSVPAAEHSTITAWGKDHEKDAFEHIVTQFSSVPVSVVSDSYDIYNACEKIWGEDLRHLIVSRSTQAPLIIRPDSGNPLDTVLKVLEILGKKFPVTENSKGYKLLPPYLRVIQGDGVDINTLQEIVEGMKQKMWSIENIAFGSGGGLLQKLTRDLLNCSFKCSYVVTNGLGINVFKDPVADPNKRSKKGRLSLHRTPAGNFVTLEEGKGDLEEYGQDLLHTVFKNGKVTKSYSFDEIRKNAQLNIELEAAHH
Procedure: The compound of the present invention was evaluated for the ability to influence the activity of nicotinamide phosphoribosyl transferase (NAMPT) which is an enzyme that metabolizes nicotinamide (Nam), not the target SARM1.
The enzymatic reaction of NAMPT was carried out by adding NAMPT recombinant protein (manufactured by Medical & Biological Laboratories Co., Ltd. (MBL)) to a reaction solution containing the substrate Nam, phosphoribosylpyrophosphate (PRPP), ATP, and the like (composition: […] (pH = 7.4), 2 µM ATP, 0.5 µM PRPP, 0.02% BSA, 2 µM DTT, 1.2 µM MgCl2, and 10 µM Nam). The amount of the reaction product NMN was detected by detecting the fluorescent signal of a fluorescent substance obtained through the reaction of 2-acetylbenzofuran with NMN using SpectraMax M2 (Molecular Devices) (excitation: 421 nm, fluorescence: 480 nm) (Moriya et al, Chemical Communications 2013, 49 11500). The test compound was added at final concentrations of 10 µM, 3 µM, 1 µM, 300 nM, 100 nM, 30 nM, 10 nM, and 3 nM to the NMN synthesis reaction system described above. The NMN-derived fluorescent signal was normalized against a control group and plotted as the function of the test compound concentrations, and the compound was evaluated for its NAMPT inhibitory effect by calculating IC50.
The IC50 value was evaluated as ∘ for ≥1 µM and as Δ for ≥0.1 µM.

hSARM1 = target: T2, hSARM1 (Homo sapiens, UniProt Q6SZW1); assay: Human SARM1 activity measurement in HEK293 cells transiently transfected with ΔN-hSARM1 (PC6 fluorescent probe); assay type: cell-based; parameters: expressed in transfected cells; host or cells: HEK293, pcDNA3 expression vector; conditions: inhibition rate; compound 30 µM; PC6 50 µM; HEK293 cells expressing ΔN-hSARM1; approximately 48 hours from transfection; read-out: Evaluation on hSARM1 inhibitory
T2 sequence (Q6SZW1 28-724): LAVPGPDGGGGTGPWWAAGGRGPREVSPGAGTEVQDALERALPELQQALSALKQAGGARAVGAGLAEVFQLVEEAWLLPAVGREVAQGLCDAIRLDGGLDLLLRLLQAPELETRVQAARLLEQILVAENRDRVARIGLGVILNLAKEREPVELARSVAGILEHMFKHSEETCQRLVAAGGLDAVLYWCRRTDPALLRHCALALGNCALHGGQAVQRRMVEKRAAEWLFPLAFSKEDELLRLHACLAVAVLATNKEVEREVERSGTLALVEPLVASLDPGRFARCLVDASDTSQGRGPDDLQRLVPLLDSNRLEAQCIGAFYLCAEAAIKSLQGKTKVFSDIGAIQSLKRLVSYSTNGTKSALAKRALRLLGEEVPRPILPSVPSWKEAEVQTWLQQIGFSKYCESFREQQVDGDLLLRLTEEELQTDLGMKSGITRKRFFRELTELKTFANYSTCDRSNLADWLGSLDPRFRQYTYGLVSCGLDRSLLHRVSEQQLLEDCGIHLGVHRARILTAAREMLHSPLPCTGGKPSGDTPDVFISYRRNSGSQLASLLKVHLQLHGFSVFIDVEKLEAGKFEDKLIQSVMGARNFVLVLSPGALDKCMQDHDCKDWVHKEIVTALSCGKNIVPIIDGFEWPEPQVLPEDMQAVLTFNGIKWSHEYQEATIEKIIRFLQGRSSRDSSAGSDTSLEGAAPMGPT
Procedure: HEK293 cells cultured in a prepared medium of nicotinamide-free DMEM (Dulbecco's modified Eagle medium) supplemented with 10% FBS (BioSera), a 1% penicillin-streptomycin solution (FUJIFILM Wako Pure Chemical Corp.), 5 μM nicotinamide were inoculated at approximately 50,000 cells/well to a 96-well microplate, and the cells were cultured at 37°C under 5% CO2, transiently transfected on the next day with a pcDNA3 expression vector containing a DNA sequence (SEQ ID NO: 1) deficient in a mitochondrial targeting sequence encoded by an N-terminal 78-base sequence in cDNA encoding human sterile α- and armadillo-motif-containing protein (hSARM1) using PEI MAX(R) reagent (PolySciences Inc.), and forced to express ΔN-hSARM1 (SEQ ID NO: 2). Approximately 8 hours later, PC6, which reacts as a substrate of SARM1-specific base exchange reaction and functions as a fluorescent probe, was added thereto at a final concentration of 50 μM, and intracellular hSARM1 activity was measured (Li et al, eLife 2021 10: e67381). A compound for inhibitory activity evaluation was added at a final concentration of 30 μM at the same time with PC6, while dimethyl sulfoxide (Nacalai Tesque Inc.) was added to samples of a control group at the same time with PC6. The cells were incubated at 37°C under 5% CO2 for approximately 48 hours from transfection, followed by fluorescent signal measurement using SpectraMax M2 (Molecular Devices) (excitation: 405 nm, fluorescence: 525 nm, fluorescence cutoff: 515 nm). Results of this screening are reported as an inhibition rate (%) relative to a negative control defined as follows by using fluorescence intensity measured from a control group without transfection with ΔN-hSARM1 as a background whereas using fluorescence intensity measured from a control group transfected with ΔN-hSARM1 as the negative control. Inhibitory rate (%) = 100-(([…]-Background))/((Signalofthenegativecontrol-Background)) × 100 [formula] The nicotinamide-free medium was prepared so as to have the same composition as that of DMEM having known composition which is generally used in the art except for nicotinamide. […]

Evaluation on NAMPT inhibitory [2]	inhibition at 30 µM (hSARM1) [%]	IC50 [2] [nM]	SMILES	minimal effective concentration [1] [µM]	Evaluation on protection against degeneration [1]
○	> 10	–	O=C(NCc1ccc(NC(=O)c2ccccc2)c(Cl)c1)c1cccnc1 [Compound 111]	≤ 0.01	–
○	> 10	–	O=C(NCc1ccc(NC(=O)c2cccnc2)c(Cl)c1)c1cccnc1 [Compound 112]	–	B (0.01 µM < B ≤ 0.1 µM)
○	> 75	–	O=C(NCc1ccc(NC(=O)C2CCCCC2)nc1)c1cccnc1 [Compound 113]	≤ 0.01	–
○	> 75	–	O=C(NCc1ccc(NC(=O)C2CCOCC2)nc1)c1cccnc1 [Compound 114]	≤ 0.01	–
○	> 75	–	O=C(CCc1ccccc1)Nc1ccc(CNC(=O)c2cccnc2)cn1 [Compound 115]	≤ 0.01	–
○	> 75	–	O=C(NCc1ccc(NC(=O)c2cccc(F)c2)nc1)c1cccnc1 [Compound 116]	≤ 0.01	–
○	–	–	NCc1cccc(CNC(=O)c2cccnc2)n1 [Compound 148]	0.1 to 1	–
○	> 25	–	O=C(NCc1cccc(CNC(=O)c2cc(F)cc(F)c2)n1)c1cccnc1 [Compound 152]	–	–
–	–	≥ 100	CN(C)c1ccc(/C=C/C(=O)Nc2ccc(CNC(=O)c3cccnc3)cn2)cc1 [Compound 181]	≤ 0.01	–
–	–	≥ 100	O=C(NCCCCCC1CCN(CCO)CC1)c1cccnc1 [compound 2]	≤ 0.01	–
–	–	≥ 100	O=C(NCCCCCCCCOCCOc1ccc([N+](=O)[O-])c2nonc12)c1cccnc1 [compound 5]	≤ 0.01	–
○	> 10	–	O=C(NCCN(CCNC(=O)c1cccnc1)C(=O)c1cccnc1)c1cccnc1 [compound 36]	–	–
○	–	–	COC(=O)C(CCCCNC(=O)c1cccnc1)NC(=O)c1cccnc1 (stereo not shown) [compound 44]	–	–
○	–	–	O=C(NCCCCC(NC(=O)c1cccnc1)C(=O)O)c1cccnc1 (stereo not shown) [compound 45]	–	–
○	–	–	NC(=O)C(CCCCNC(=O)c1cccnc1)NC(=O)c1cccnc1 (stereo not shown) [compound 46]	–	–
○	–	–	CCNC(=O)C(CCCCNC(=O)c1cccnc1)NC(=O)c1cccnc1 (stereo not shown) [compound 47]	–	–
○	–	–	COC(=O)C(CCCNC(=O)c1cccnc1)NC(=O)c1cccnc1 (stereo not shown) [compound 48]	0.1 to 1	–
○	–	–	O=C(NCCCC(NC(=O)c1cccnc1)C(=O)O)c1cccnc1 (stereo not shown) [compound 49]	–	–
○	–	–	NC(=O)C(CCCNC(=O)c1cccnc1)NC(=O)c1cccnc1 (stereo not shown) [compound 50]	–	–
○	–	–	CCNC(=O)C(CCCNC(=O)c1cccnc1)NC(=O)c1cccnc1 (stereo not shown) [compound 51]	–	–
○	> 10	–	O=C(/C=C/c1cccnc1)NCc1ccccc1NC(=O)/C=C/c1cccnc1 [compound 60]	–	–
○	> 10	–	O=C(NCc1ccc(NS(=O)(=O)c2ccccc2)nc1)c1cccnc1 [compound 79]	–	–
○	> 10	–	[N-]=[N+]=NCc1cccc(CNC(=O)c2cccnc2)n1 [compound 90]	–	–
○	> 10	–	O=C(NCc1cccc(CN2Cc3ccccc3C2=O)n1)c1cccnc1 [compound 92]	–	–
○	–	–	O=C(Nc1ccccc1CCc1ccccc1NC(=O)c1cccnc1)c1cccnc1 [compound 100]	0.01 to 0.1	–
○	–	–	CN(CCCCCCN(C)C(=O)c1cccnc1)C(=O)c1cccnc1 [compound 102]	≤ 0.01	–
○	–	–	NCCOCCOCCNC(=O)c1cccnc1 [compound 107]	≤ 0.01	–

SMILES	Evaluation on NAMPT inhibitory [2]	inhibition at 30 µM (hSARM1) [%]	IC50 [2] [nM]	minimal effective concentration [1] [µM]	Evaluation on protection against degeneration [1]
O=C(NCc1ccc(NC(=O)c2cccc3ccccc23)nc1)c1cccnc1 [Compound 121]	–	–	≥ 100	0.01 to 0.1	–
